Results published in patent publication US20230034660A1, “PEPTIDES THAT ENHANCE NMDA RECEPTOR FUNCTION AND USE THEREOF” (University of Pittsburgh - Of the Commonwealth System of …, priority 2019, published 2023).

Test system: NMDAR
Assay: NMDAR-mediated currents evoked by uncaging MNI-caged glutamate in cortical cultures, ZX1 potentiation
Format: cell-based, rat
Conditions: cortical cultures treated with peptide 3 μM overnight; held at −70 mV, Mg2+ free
Experimental: FIGS. 5A-5C: N2AZ reduces zinc inhibition of NMDAR currents in cortical cultures. (FIG. 5A) Representative image of a neuron in cortical culture filled with Alexa 548 during whole cell recording. Asterisk represents location of laser photolysis of MNI-caged glutamate (40 μM, 1 millisecond pulse) used to evoke EPSCs. (FIG. 5B) Sample traces of NMDAR EPSCs, averaged over 5 sweeps, evoked by photolysis of MNI-caged glutamate in cortical cultures held at −70 mV in Mg^2 + free solution. […] Bar graphs represent the average potentiation of responses 5 minutes after ZX1 application. Errors bars indicate mean±SEM. […]
Whole-cell recordings from cultured cortical neurons were obtained with glass micropipettes (3-6 MΩ) containing 140 mM CsF, 10 mM CsEGTA, 1 mM CaCl2, 10 mM HEPES, pH=7,2, 295 mOsm. […] Using ephus (Suter et al. 2010) and a Multiclamp 700B amplifier (Molecular Devices), NMDAR excitatory postsynaptic currents (EPSCs) were recorded in voltage clamp (held at −70 mV) in the presence of TTX (300 nM to prevent synaptic activity), DNQX (20 μM, AMPA and kainate receptor antagonist), and 4-Methoxy-7-nitroindolinyl (MNI)-caged glutamate (40 μM). […] The ZX1-mediated potentiation for each cell was calculated as the average percent increase in responses following application of the metal chelator across these 4 uncaging locations. […]

NDSYLRSSL [Peptide N2AZ]
ZX1 potentiation of NMDAR-mediated currents above baseline: 1.34±3.48%

SNLSDSYDR [scN2AZ, reference compound]
ZX1 potentiation of NMDAR-mediated currents above baseline: 37.40±11.63%
